Measured values taken from ChEMBL document CHEMBL1201862, “PubChem BioAssay data set” (2004).
Calls of active or inactive are those of the source.

Experiments:
[1] = target: Prothrombin (Homo sapiens, UniProt P00734); test: Thrombin 1536 HTS Dose Response Confirmation. [Related pubchem assays: 1046 (Thrombin 1536 HTS; hits were confirmed in this assay)]; format: functional
[2] = target: T1, Fatty acid synthase (Homo sapiens, UniProt P49327); test: inhibition of human FAS-TE enzyme activity – biochemical, endpoint fluorescence intensity, uHTS hits, dose response (AID 624327); format: functional;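 further: fluorescence from hydrolysis of an O-methyl fluorescein acyl ester substrate by the enzyme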
[3] = target: T1, Fatty acid synthase; test: inhibition of human FAS-TE enzyme activity – biochemical, kinetic fluorescence intensity, dose response (AID 624326); format: functional;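 further: rate of fluorescence rise from hydrolysis of a fluorogenic O-methyl fluorescein ester substrate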
[4] = target: T2, Calpain-2 catalytic subunit (Sus scrofa, UniProt P43367); test: m-calpain protease blockers, concentration series – biochemical, fluorogenic peptide substrate, dose response (AID 1420); format: functional
T2 sequence (P43367 whole entry): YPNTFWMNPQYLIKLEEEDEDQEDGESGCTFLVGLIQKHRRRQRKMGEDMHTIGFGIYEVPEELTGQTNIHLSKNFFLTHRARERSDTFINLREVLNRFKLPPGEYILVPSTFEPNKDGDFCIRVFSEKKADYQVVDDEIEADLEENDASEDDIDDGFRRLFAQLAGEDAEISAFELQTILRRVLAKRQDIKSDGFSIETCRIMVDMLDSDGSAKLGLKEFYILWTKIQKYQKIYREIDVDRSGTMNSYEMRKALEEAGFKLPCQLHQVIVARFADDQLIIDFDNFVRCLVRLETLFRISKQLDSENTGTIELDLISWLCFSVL

[5] = target: Estrogen receptor beta (Homo sapiens, UniProt Q92731);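 further: recombinant ER-beta bound to coactivator SRC1 peptide in presence of estradiol agonist; inhibitors block coactivator peptide binding and lower the FRET signal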
[6] = target: Voltage-dependent T-type calcium channel subunit alpha-1H (Homo sapiens, UniProt O95180); format: functional;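 further: channel activity triggered by adding a high calcium stimulation buffer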
[7] = cells; format: functional, cell-based
[8] = target: T3, Trace amine-associated receptor 1 (Homo sapiens, UniProt Q96RJ0); test: Fluorescence-based cell-based high throughput dose response assay to identify agonists of the human trace amine associated receptor 1 (TAAR1).; format: functional
T3 sequence (Q96RJ0 whole entry): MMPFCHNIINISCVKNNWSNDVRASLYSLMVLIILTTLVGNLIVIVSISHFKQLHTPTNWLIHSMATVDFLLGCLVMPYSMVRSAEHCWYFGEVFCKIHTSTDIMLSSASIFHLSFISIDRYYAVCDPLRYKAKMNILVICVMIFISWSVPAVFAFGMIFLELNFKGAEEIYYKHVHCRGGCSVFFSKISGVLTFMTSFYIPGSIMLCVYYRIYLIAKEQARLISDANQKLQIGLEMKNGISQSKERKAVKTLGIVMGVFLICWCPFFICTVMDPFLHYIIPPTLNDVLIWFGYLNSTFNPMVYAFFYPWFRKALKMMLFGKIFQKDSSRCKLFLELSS

[9] = target: T3, Trace amine-associated receptor 1; test: Counterscreen for agonists of the human trace amine associated receptor 1 (hTAAR1): Fluorescence-based cell-based high throughput dose response assay to identify hTAAR1 agonist that also desensitize TAAR1 receptor response.; format: functional
[10] = cells; format: functional, cell-based; remark: listed apart in the source
[11] = target: T4, Rac GTPase-activating protein 1 (Homo sapiens, UniProt Q9H0H5); test: blockers of MgcRacGAP-driven Rac1 GTP hydrolysis – biochemical, ADP Hunter fluorescence, primary and confirmatory, confirmation (AID 624330); format: functional
T4 sequence (Q9H0H5 whole entry): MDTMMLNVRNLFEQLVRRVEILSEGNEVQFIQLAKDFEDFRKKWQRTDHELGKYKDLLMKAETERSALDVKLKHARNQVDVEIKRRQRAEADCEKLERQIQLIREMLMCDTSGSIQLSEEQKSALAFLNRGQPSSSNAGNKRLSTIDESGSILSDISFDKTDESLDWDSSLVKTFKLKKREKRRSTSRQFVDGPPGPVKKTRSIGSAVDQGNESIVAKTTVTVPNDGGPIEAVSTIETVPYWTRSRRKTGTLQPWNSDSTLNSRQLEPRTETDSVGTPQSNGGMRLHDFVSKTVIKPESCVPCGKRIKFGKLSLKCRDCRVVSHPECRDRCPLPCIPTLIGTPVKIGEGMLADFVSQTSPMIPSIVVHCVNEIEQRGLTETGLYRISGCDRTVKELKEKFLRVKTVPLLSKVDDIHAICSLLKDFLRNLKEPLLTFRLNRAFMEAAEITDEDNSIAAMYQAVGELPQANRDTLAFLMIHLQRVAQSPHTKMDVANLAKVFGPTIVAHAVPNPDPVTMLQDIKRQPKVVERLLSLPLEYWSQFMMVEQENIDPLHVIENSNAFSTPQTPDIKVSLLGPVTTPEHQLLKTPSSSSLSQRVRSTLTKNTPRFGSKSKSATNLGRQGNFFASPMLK

[12] = target: T5, Cytochrome P450 1A2 (Homo sapiens, UniProt P05177);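 further: PubChem cytochrome P450 panel assay, CYP1A2 panel member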
T5 sequence (P05177 whole entry): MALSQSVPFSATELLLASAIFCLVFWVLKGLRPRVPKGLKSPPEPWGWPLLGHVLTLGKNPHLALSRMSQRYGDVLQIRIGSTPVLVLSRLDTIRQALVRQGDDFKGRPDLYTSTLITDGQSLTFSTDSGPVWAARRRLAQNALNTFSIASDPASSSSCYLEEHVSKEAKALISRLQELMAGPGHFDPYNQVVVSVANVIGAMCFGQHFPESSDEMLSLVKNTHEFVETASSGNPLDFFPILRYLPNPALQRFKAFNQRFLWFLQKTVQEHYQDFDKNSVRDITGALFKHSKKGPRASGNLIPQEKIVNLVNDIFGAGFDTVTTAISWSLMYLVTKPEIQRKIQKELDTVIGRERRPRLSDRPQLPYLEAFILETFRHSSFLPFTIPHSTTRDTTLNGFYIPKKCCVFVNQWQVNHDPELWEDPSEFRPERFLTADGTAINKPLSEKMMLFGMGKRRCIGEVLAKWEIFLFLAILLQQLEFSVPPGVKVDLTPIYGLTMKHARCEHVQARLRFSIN

[13] = target: Cytochrome P450 3A4 (Homo sapiens, UniProt P08684);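 further: CYP3A4 tested as one member of a cytochrome P450 panel screen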
[14] = target: T6, Short transient receptor potential channel 4 (Mus musculus, UniProt Q9QUQ5); test: block of DAMGO-driven TRPC4 calcium entry – cell-based, HEK293 TRPC4/mu-opioid, Fluo-4 calcium, dose response (AID 434942); format: functional;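 further: potency of inhibitors blocking the TRPC4 calcium response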
T6 sequence (Q9QUQ5 whole entry): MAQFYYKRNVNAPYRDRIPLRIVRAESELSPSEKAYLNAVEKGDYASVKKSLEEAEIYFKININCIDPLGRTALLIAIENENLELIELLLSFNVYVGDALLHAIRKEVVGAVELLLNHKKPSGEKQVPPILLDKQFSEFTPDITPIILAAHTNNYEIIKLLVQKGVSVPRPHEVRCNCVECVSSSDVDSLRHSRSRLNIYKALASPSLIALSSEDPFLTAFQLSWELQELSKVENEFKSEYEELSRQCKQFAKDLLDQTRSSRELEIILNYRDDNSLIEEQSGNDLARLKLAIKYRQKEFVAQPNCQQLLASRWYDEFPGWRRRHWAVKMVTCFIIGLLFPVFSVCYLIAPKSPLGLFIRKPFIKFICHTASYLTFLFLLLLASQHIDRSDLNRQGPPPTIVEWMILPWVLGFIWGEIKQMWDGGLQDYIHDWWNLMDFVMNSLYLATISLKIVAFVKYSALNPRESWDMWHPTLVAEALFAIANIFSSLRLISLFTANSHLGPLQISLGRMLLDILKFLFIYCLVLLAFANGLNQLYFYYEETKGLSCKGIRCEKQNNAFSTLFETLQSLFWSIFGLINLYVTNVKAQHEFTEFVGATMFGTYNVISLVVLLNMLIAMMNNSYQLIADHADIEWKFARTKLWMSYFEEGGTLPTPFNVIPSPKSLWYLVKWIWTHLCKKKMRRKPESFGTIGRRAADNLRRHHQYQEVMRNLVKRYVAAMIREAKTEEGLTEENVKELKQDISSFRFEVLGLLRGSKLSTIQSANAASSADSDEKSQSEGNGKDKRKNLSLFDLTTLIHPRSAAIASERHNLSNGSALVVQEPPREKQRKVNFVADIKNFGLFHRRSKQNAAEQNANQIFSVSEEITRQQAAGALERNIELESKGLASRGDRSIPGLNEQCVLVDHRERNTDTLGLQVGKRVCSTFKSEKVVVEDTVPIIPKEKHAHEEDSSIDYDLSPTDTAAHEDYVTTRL

[15] = target: T7, Heat shock factor protein 1 (Mus musculus, UniProt P38532); test: decrease of HSF1-responsive luciferase luminescence – cell-based, NIH3T3, dose retest, confirmation (AID 2382); format: functional;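 further: NIH3T3 fibroblasts with HSF1-driven luciferase reporter stressed by proteasome inhibitor MG132; luminescence from HSF1-driven luciferase expression after 8 hours of MG132 stress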
T7 sequence (P38532 whole entry): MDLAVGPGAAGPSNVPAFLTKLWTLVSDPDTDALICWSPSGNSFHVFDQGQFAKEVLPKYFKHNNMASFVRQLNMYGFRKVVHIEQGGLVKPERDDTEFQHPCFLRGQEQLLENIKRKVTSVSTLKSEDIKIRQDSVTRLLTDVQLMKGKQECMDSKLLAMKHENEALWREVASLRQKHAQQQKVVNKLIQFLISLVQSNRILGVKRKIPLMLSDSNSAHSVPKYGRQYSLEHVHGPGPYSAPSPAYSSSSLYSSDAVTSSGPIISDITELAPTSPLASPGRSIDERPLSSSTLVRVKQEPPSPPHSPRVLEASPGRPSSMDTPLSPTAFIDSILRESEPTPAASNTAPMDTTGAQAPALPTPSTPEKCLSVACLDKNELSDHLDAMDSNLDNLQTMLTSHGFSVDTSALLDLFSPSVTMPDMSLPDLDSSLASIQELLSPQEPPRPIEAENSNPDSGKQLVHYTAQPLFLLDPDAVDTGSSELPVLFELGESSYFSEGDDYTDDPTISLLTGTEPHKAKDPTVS

[16] = viability of PTEN-deleted HCT116 cells – cell-based, HCT116 PTEN knockout, dose response (AID 1047); format: functional;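 further: HCT116 colon tumor cells with PTEN knocked out; cells exposed to compound for 60 hours before readout; potency for loss of cell viability measured by luminescence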
[17] = viability of HCT116 lacking mutant beta-catenin – cell-based, human colon tumor, dose response (AID 1045); format: functional;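 further: HCT116 colon tumor cells with beta catenin knocked out; cells exposed to compound for 60 hours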
[18] = cells; format: functional, cell-based; remark: listed apart in the source
[19] = cells; format: functional, cell-based; remark: listed apart in the source

Voltage-dependent T-type calcium channel subunit alpha-1H, sequence (O95180 whole entry): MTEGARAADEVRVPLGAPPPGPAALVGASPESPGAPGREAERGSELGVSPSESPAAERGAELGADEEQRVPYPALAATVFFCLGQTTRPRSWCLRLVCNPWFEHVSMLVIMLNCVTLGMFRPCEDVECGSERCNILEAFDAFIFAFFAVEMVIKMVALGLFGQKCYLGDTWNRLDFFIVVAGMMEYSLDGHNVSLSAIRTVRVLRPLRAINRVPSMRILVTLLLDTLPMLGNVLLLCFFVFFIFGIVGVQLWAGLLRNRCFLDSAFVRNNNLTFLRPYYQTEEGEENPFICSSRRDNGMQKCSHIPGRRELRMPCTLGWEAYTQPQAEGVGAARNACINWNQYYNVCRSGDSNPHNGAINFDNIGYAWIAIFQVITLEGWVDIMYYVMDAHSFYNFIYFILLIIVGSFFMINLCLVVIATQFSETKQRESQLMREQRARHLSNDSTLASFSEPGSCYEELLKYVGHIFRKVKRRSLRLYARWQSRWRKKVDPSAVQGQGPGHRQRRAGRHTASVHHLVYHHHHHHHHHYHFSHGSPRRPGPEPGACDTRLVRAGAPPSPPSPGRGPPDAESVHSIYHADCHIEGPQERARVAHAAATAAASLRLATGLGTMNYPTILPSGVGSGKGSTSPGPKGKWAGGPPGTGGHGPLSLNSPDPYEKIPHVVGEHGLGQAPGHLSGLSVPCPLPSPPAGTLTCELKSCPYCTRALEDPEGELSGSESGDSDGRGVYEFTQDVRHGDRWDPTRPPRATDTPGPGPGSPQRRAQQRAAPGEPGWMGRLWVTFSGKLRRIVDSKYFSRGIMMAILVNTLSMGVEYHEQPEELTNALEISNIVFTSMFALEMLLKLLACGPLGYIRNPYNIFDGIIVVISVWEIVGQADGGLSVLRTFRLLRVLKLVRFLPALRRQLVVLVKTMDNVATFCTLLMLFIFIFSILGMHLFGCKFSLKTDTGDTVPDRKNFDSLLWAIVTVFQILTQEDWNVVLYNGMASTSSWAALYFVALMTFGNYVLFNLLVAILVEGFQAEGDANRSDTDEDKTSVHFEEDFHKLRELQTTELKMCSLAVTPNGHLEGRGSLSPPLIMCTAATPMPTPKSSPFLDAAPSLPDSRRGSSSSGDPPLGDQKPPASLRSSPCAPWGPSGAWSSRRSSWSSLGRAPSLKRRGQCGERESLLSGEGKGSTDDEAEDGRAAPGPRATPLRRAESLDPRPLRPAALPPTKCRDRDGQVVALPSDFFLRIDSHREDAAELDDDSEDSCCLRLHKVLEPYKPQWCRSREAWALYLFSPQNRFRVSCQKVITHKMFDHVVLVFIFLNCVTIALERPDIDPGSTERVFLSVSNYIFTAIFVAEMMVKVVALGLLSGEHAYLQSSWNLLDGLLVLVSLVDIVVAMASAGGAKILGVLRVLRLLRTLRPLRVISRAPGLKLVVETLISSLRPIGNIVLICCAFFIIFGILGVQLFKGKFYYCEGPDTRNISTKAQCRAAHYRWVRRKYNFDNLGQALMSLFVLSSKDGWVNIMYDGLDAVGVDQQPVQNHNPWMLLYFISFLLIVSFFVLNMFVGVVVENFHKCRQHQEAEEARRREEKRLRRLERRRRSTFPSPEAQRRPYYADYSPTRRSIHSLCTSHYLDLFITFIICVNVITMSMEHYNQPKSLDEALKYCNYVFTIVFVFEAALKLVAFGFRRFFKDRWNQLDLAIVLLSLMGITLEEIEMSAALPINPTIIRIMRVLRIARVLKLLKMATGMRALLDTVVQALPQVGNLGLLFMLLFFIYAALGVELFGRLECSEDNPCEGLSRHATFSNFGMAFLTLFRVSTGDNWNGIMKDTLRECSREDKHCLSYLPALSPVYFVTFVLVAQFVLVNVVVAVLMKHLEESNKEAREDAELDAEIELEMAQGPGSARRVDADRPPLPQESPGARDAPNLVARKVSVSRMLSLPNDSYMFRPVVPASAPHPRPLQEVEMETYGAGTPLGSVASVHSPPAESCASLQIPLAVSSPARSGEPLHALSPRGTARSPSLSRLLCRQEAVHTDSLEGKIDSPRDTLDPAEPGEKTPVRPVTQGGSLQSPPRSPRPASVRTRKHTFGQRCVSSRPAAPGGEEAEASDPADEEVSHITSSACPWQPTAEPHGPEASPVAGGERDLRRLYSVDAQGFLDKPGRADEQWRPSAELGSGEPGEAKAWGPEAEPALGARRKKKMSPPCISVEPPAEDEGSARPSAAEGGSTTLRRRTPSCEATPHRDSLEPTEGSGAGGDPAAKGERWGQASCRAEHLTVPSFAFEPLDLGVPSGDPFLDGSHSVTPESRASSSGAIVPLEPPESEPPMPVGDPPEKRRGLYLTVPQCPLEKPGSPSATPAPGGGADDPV
T1 sequence (P49327 whole entry): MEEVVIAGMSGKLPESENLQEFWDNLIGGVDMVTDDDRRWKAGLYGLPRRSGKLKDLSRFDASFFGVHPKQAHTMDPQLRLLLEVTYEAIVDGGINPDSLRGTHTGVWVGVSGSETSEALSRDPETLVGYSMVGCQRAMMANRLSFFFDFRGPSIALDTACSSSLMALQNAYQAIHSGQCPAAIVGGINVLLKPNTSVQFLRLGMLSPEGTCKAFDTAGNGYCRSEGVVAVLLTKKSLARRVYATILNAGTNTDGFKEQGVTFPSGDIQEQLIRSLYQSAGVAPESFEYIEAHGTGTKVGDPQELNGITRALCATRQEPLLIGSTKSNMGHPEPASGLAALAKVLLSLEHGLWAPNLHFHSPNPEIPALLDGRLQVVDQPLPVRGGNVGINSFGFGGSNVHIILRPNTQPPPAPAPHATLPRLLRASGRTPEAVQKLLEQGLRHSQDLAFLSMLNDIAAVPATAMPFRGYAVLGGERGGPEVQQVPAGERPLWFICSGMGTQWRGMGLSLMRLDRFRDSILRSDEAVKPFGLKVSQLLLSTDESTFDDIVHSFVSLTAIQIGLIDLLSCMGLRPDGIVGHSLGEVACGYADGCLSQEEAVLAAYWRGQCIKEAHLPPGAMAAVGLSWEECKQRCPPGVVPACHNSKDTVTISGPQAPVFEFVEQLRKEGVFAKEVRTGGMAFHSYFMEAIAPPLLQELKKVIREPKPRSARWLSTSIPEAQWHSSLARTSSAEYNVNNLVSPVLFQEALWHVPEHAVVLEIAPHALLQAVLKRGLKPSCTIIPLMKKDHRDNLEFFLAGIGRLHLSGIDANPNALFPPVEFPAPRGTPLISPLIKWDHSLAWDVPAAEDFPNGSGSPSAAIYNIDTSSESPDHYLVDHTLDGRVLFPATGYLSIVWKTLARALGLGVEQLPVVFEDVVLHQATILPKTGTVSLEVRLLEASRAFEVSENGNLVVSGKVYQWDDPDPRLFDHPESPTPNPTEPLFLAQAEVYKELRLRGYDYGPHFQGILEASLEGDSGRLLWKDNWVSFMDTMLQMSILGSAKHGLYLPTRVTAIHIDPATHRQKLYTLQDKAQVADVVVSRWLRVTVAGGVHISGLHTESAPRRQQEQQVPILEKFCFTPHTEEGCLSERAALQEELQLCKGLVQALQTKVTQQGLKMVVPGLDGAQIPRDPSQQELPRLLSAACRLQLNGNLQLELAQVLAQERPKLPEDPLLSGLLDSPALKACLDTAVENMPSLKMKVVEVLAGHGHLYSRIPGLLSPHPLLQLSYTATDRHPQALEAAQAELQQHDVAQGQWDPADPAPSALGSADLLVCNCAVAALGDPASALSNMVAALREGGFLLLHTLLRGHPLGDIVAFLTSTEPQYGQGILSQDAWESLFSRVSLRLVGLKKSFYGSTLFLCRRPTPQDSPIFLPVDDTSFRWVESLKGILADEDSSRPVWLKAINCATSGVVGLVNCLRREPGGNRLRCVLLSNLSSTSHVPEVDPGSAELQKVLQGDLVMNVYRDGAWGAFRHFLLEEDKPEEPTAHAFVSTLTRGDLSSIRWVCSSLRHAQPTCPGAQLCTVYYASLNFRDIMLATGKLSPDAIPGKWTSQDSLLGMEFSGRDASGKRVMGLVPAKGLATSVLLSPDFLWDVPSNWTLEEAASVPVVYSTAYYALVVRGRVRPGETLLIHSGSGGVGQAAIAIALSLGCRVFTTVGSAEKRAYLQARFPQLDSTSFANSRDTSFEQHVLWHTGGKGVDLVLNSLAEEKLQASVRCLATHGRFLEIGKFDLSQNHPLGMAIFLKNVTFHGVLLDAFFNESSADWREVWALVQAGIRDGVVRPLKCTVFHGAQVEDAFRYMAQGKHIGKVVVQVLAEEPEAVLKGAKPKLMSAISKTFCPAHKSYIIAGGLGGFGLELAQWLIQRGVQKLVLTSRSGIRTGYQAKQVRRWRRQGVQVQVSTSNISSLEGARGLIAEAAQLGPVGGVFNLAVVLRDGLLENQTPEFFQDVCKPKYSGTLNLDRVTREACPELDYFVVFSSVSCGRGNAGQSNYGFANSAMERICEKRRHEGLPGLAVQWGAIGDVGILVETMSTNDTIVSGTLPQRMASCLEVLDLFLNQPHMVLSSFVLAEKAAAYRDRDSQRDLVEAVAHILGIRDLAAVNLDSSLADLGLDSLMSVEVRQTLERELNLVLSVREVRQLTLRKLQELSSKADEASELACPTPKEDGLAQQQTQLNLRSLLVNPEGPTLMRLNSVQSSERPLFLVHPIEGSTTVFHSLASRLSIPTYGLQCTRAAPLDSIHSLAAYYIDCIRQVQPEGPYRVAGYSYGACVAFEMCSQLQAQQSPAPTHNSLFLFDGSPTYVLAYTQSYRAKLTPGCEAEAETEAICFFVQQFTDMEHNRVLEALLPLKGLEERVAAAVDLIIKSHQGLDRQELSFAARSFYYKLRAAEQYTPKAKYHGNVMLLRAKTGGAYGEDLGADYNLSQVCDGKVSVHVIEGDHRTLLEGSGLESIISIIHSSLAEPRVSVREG

SMILES: CCn1cc(C(=O)NCc2ccc3c(c2)OCO3)c(=O)c2cc(S(=O)(=O)N(C)C)ccc21
- IC50 [1]: 0.537 µM (active)
- IC50 [2]: 8.88 µM (active)
- IC50 [3]: 12.1 µM (active)

SMILES: Cc1ccc(N2CCN(C3=NC(=O)/C(=C\c4cccs4)S3)CC2)cc1
- IC50 [4]: 19.3 µM (not active)

SMILES: CCN(CC)S(=O)(=O)c1ccc(C(=O)NCc2ccc(C)cc2)cc1
- IC50 [5]: > 50 µM (not active)

SMILES: COc1ccc(-c2nnc(N3CCCCC3)c3ccccc23)cc1
- EC50 [6]: 11.3 µM (active)

SMILES: NNc1nc(Nc2ccccc2)nc(N2CCCCC2)n1
- IC50 [7]: > 29.9 µM (inactive)
- EC50 [8]: 3.48 µM (active)
- IC50 [9]: 8.76 µM (active)
- EC50 [10]: > 29.9 µM (inactive)

SMILES: CCOC(=O)c1[nH]c2ccccc2c1NC(=S)Nc1ccccc1
- IC50 [1]: 3.09 µM (active)
- IC50 [11]: 108 µM (active)

SMILES: O=C(COC(=O)Cc1ccccc1F)NCCc1ccccc1
- IC50 [7]: > 29.9 µM (inactive)
- EC50 [8]: > 9.96 µM (active)
- IC50 [9]: 2.35 µM (active)
- EC50 [10]: > 29.9 µM (inactive)

SMILES: CCC(C(=O)Nc1cccc(C(F)(F)F)c1)c1ccccc1 (centres undefined)
- EC50 [6]: 2.89 µM (active)
- AC50 [12]: 2.51 µM (inconclusive)
- AC50 [13]: 14.1 µM (inconclusive)

SMILES: O=C1c2ccccc2C(=O)N1CCc1csc(-c2ccc(F)cc2)n1
- IC50 [4]: > 50 µM (not active)

SMILES: COCCn1c(SCc2ccccc2F)nc2ccccc2c1=O
- IC50 [4]: 9.21 µM (not active)
- EC50 [14]: 1.88 µM (active)

SMILES: CC(=O)n1nc(-c2ccccc2)nc1NCc1ccc(F)cc1
- IC50 [1]: 0.0165 µM (active)

SMILES: O=C(CN1C(=O)C2CC=CCC2C1=O)Nc1nnc(SCc2ccc(Cl)cc2)s1 (centres undefined)
- EC50 [6]: 5.35 µM (active)

SMILES: O=C(CN1CCc2ccccc2C1)Nc1ccccc1C(F)(F)F
- IC50 [11]: 205 µM (active)
- IC50 [7]: > 29.9 µM (inactive)
- EC50 [8]: 3.55 µM (active)
- IC50 [9]: 11.1 µM (inactive)
- EC50 [10]: > 29.9 µM (inactive)

SMILES: Cc1ccc(-c2noc(CSc3nnnn3C3CCCCC3)n2)cc1
- EC50 [6]: 1.95 µM (active)

SMILES: CCOC(=O)CSc1nnc(NC(=O)c2cc([N+](=O)[O-])cc([N+](=O)[O-])c2)s1
- IC50 [1]: > 50 µM (not active)

SMILES: COc1ccc(CNc2nc3c(c(=O)n(Cc4ccc(Br)cc4)c(=O)n3C)n2C)cc1
- IC50 [4]: 2.3 µM (active)

SMILES: O=C(Oc1oc(-c2ccco2)nc1/C=N/c1ccccc1)c1ccoc1
- EC50 [15]: > 195 µM (not active)
- IC50 [1]: 1.37 µM (active)

SMILES: C=CCOc1ccc(/C=N/N2C(=O)C(CC(=O)Nc3ccc(F)cc3F)S/C2=N\C)cc1 (centres undefined)
- EC50 [16]: 17.6 µM (active)
- IC50 [4]: > 50 µM (not active)
- EC50 [17]: 79.4 µM (active)

SMILES: CCOC(=O)N[C@H](C(=O)N1CCC[C@H]1C(=O)NCCc1ccccc1Cl)c1ccccc1
- IC50 [7]: > 29.9 µM (inactive)
- EC50 [8]: 2.06 µM (active)
- IC50 [9]: 6.89 µM (active)
- EC50 [10]: > 29.9 µM (inactive)

SMILES: COc1cccc(/C=N\NC(=O)Cn2nnc3ccccc32)c1O
- EC50 [18]: 172 µM (active)
- EC50 [19]: > 350 µM (not active)

SMILES: CCOc1cccc(-c2c(C(=O)N/N=C/c3ccc(Br)cc3)nnn2-c2nonc2N)c1
- EC50 [18]: > 350 µM (not active)
- EC50 [19]: 160 µM (active)

SMILES: Nc1nc(-c2ccccc2)cn1/N=C/c1ccccc1
- IC50 [7]: > 29.9 µM (inactive)
- EC50 [8]: 1.49 µM (active)
- IC50 [9]: 8.47 µM (active)
- EC50 [10]: > 29.9 µM (inactive)
